From article PMC8012715, “Mechanism of NanR gene repression and allosteric induction of bacterial sialic acid metabolism” (Nature Communications, 2021)

Biological target: T1, NanR (Escherichia coli, UniProt P0A8W0)
T1 construct: crystals by in situ chymotrypsin proteolysis
T1 sequence (P0A8W0 1-263): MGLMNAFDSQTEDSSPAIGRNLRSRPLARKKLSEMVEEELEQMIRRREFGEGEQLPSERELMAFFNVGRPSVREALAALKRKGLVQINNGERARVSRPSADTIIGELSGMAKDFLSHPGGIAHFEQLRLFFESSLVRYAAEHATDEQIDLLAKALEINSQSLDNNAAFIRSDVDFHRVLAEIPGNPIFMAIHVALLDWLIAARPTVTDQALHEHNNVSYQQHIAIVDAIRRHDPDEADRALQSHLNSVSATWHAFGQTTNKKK
Experiment: isothermal titration calorimetry
Settings: 20 mM Tris-HCl pH 8.0, 150 mM NaCl; 8 °C; no DNA; Zn2+-loaded protein; effector-binding domain; allosteric

- Kd: 16 µM
SMILES: CC(=O)N[C@H]1[C@H]([C@H](O)[C@H](O)CO)OC(O)(C(=O)O)C[C@@H]1O (stereo partly shown) [Neu5Ac]
